Measured values: ChEMBL document CHEMBL1128966, “Benzylphosphonic acid inhibitors of human prostatic acid phosphatase” (Bioorg Med Chem Lett, 1996)

target: T1, Prostatic acid phosphatase (Homo sapiens, UniProt P15309); assay: Inhibition of human prostatic acid phosphatase was determined as inhibition of the hydrolysis of tyrosine phosphate
T1 sequence (P15309 whole entry): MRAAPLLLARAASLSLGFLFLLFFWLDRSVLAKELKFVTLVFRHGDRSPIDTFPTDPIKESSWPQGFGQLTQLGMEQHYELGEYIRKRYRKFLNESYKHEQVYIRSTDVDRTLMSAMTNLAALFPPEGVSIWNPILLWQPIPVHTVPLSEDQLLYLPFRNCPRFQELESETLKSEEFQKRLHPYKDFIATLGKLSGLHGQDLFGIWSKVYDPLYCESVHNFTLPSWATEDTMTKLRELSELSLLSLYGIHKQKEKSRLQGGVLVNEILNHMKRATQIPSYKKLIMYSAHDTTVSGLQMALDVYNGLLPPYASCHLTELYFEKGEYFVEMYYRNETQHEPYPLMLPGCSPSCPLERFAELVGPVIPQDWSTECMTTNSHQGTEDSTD

| SMILES | IC50 [µM] |
| --- | --- |
| O=P(O)(O)C1c2ccccc2Sc2ccccc21 | > 100 |
| O=P(O)(O)C1c2ccccc2-c2ccccc21 | > 500 |
| O=P(O)(O)C(c1ccccc1)c1ccccc1 | 142 |
| O=P(O)(O)C1c2ccccc2C=Cc2ccccc21 | > 100 |
| O=P(O)(O)Cc1ccccc1 [BENZYLPHOSPHONIC ACID] | > 500 |

The next compounds have a lower IC50 than those just listed; values first:

| IC50 [µM] | SMILES |
| --- | --- |
| 67 | O=P(O)(O)C(c1ccccc1)c1ccc(-c2ccccc2)cc1 (configuration not stated) |
| 88 | O=P(O)(O)Cc1cccc(C(F)(F)F)c1 |
| 14 | O=P(O)(O)C(CCc1ccccc1)c1ccccc1 (configuration not stated) |
| 22 | O=P(O)(O)C1c2ccccc2Oc2ccccc21 |
| 94 | O=P(O)(O)C1c2ccccc2CCc2ccccc21 |
| 16 | O=P(O)(O)C(Cc1ccc(-c2ccccc2)cc1)c1ccccc1 (configuration not stated) |
| 70 | O=P(O)(O)C(c1ccc(-c2ccccc2)cc1)c1ccc(-c2ccccc2)cc1 |
